The NIST ThermoML archive (doi:10.1016/j.fluid.2013.06.048)
Values joined by “and” are separate entries in the source; they are usually repeats but may differ in a detail not shown here. Identical values can stand only once. ± gives the expanded uncertainty stated by the source.

Details: Liquid; pulse-heating method

| Critical pressure | Critical temperature | Compound |
| --- | --- | --- |
| 4000 ± 160 kPa | 731 ± 24 K | OCCCCCO [1,5-pentanediol] |
| 3400 ± 160 kPa and 4080 ± 160 kPa |  | OCCCCCCO [1,6-hexanediol] |
| 2700 ± 160 kPa | 752 ± 24 K | OCCCCCCCCO [1,8-octanediol] |
| 2400 ± 160 kPa | 760 ± 24 K | OCCCCCCCCCO [1,9-nonanediol] |
| 2200 ± 160 kPa | 770 ± 24 K | OCCCCCCCCCCO [1,10-decanediol] |
| 1930 ± 160 kPa | 798 ± 24 K | OCCCCCCCCCCCCO [1,12-dihydroxydodecane] |

| Compound | Critical pressure | Critical temperature |
| --- | --- | --- |
| OCCCCO [1,4-butanediol] | 5400 ± 160 kPa and 6220 ± 160 kPa and 5520 ± 160 kPa | 728 ± 24 K and 727 ± 24 K and 723.8 ± 24 K |
| OCCCO [propan-1,3-diol] | 6380 ± 160 kPa and 6300 ± 200 kPa and 6550 ± 160 kPa | 721 ± 24 K and 722 ± 24 K and 718.2 ± 24 K |
